This is an account of results in US20090036498A1, “FLY CONTROL METHOD” (priority 2007, published 2009).

What is called mortality is the percentage killed.

Each structure is given as a SMILES string.

Assay [1] concerns Adult L. serricata (blowflies). Put plainly: Test A: adult blowflies on blood agar containing test compound, number of dead flies scored. In kind it is in vivo, Lucilia sericata. The conditions noted are these: 4 flies in test; for Number dead flies at 2 hours: scored at 2 hours; for Number dead flies at 4 hours: scored at 4 hours; for Number dead flies at 24 hours: scored at 24 hours. How it is done: Adult L. serricata (blowflies): Adult flies are placed on beds of blood agar (in individual test wells; 4 flies per well) in which test compound (3-bromo-1-(3-chloro-2-pyridinyl)-N-[4-cyano-2-methyl-6-[(methylamino)carbonyl]phenyl]-1H-pyrazole-5-carboxamide) was dissolved/suspended prior to hardening of agar. Flies can take up test compound by both ingestion and contact. Assays are scored by number of dead flies at 2 hours, 4 hours, and 24 hours.

Assay [2] concerns Newly emerged larvae of blowfly, Lucilica sericata. Nature of the assay: Blowfly larvae on filter paper discs with test compound mixed in dried blood bovine serum, mortality. In kind it is in vivo. The note with it: Lucilia sericata, assessed at 24 hours, four replicates per data point. How it is done:
L. serricata (Insect; Blowfly) Larvae.
Test compound (3-bromo-1-(3-chloro-2-pyridinyl)-N-[4-cyano-2-methyl-6-[(methylamino)-carbonyl]phenyl]-1H-pyrazole-5-carboxamide) was mixed with dried blood bovine serum and placed on filter paper discs. Newly emerged larvae of blowfly, Lucilica sericata were added to the filter paper, which were ingested by larvae. Activity may occur through both feeding and contact. Four replicates were run per data point. Activity was assessed at 24 hours.

As to `CCOP(=S)(OCC)Oc1nc(Cl)c(Cl)cc1Cl` [Chloropyriphos], the “Number dead flies at 2 hours” value is recorded as 0 in assay [1] (Rate 1 ppm in blood agar); 1 in assay [1] (Rate 10 ppm in blood agar); 3 in assay [1] (Rate 25 ppm in blood agar); 4 in assay [1] (Rate 50 ppm in blood agar); 4 in assay [1] (Rate 100 ppm in blood agar). The “Number dead flies at 4 hours” value in assay [1] (Rate 1 ppm in blood agar) stood at 1; in assay [1] (Rate 10 ppm in blood agar), 4; in assay [1] (Rate 25 ppm in blood agar) it was 4; in assay [1] (Rate 50 ppm in blood agar) it was 4; in assay [1] (Rate 100 ppm in blood agar), 4. The “Number dead flies at 24 hours” value in assay [1] (Rate 1 ppm in blood agar), in assay [1] (Rate 10 ppm in blood agar), in assay [1] (Rate 25 ppm in blood agar), in assay [1] (Rate 50 ppm in blood agar) and in assay [1] (Rate 100 ppm in blood agar) was 4 throughout.

As for `N#Cc1nn(-c2c(Cl)cc(C(F)(F)F)cc2Cl)c(N)c1[S+]([O-])C(F)(F)F` (stereo not drawn) [Fipronil, (.+−.)-5-amino-1-(2,6-dichloro-α,α,α-triflu-oro-p-tolyl)-4-trifluoromethyl-sulphinylpyrazol-3-carbonitrile, reference compound], the mortality at 0.5 ppm in assay [2] lay in the range of 90 to 100%.

As to `CNC(=O)c1cc(C#N)cc(C)c1NC(=O)c1cc(Br)nn1-c1ncccc1Cl` [Test compound, 3-bromo-1-(3-chloro-2-pyridinyl)-N-[4-cyano-2-methyl-6-[(methylamino)-carbonyl]phenyl]-1H-pyrazole-5-carboxamide], the “Number dead flies at 2 hours” value in assay [1] (Rate 1 ppm in blood agar), in assay [1] (Rate 10 ppm in blood agar), in assay [1] (Rate 25 ppm in blood agar), in assay [1] (Rate 50 ppm in blood agar) and in assay [1] (Rate 100 ppm in blood agar) was 0 in each case. Besides, the “Number dead flies at 4 hours” value in assay [1] (Rate 1 ppm in blood agar), in assay [1] (Rate 10 ppm in blood agar), in assay [1] (Rate 25 ppm in blood agar), in assay [1] (Rate 50 ppm in blood agar) and in assay [1] (Rate 100 ppm in blood agar) was 0 each time. Besides, the “Number dead flies at 24 hours” value in assay [1] (Rate 1 ppm in blood agar) was determined as 0; in assay [1] (Rate 10 ppm in blood agar), 1; in assay [1] (Rate 25 ppm in blood agar), 2; in assay [1] (Rate 50 ppm in blood agar) it was 3; in assay [1] (Rate 100 ppm in blood agar), 3. Moreover, in assay [2], the mortality at 0.5 ppm was in the range of 90 to 100%.
